According to publication PMC7961587, “Novel Cell Permeable Polymers of N-Substituted L-2,3-Diaminopropionic Acid (DAPEGs) and Cellular Consequences of Their Interactions with Nucleic Acids” (International Journal of Molecular Sciences, 2021):

Tests used:
[1] = tested on: HB2 and MDA-MB-231 cells; test: Cytotoxicity assay CCK-8; format: cell-based, human; details: CCK8, Figure S5; 1–100 µM; 2 h or 24 h
Procedure: Cell viability against cell-penetrating peptidomimetics was detected using the cell counting kit-8 (CCK-8) assay (Sigma Aldrich, Poznan, Poland). The HB2 and MDA-MB-231 cells were seeded into 96-well plates at a density of 5 × 10^3/well and 7 × 10^3/well, respectively, and incubated in complete medium (100 µL/well) for 48 h. Then, the medium was replaced with fresh medium (100 µL/well), and solutions of compounds at various concentrations (1, 5, 10, 20, 50, and 100 µM) were added; the cells were incubated for 2 h or 24 h. Cells incubated in media without any additives were used as control. After incubation, 10 µL/well of 2-(2-methoxy-4-nitrophenyl)-3-(4-nitrophenyl)-5-(2,4-disulfophenyl)-2H-tetrazolium, monosodium salt (WST-8) reagent was added according to the manufacturers’ instructions, and the mixture was incubated at 37 °C for 4 h. Cell viability was analyzed on the basis of formazan absorbance using a microplate reader (SPECTROstar Nano, BMG LABTECH, Ortenberg, Germany) at 450 nm.
Table 1S. Minimal charge to ratio (N/P) of each compoun d for efficient complexation with
DNA. *minimal N/P ratio resulting in effective complex formation based on EMSA. **ND ‐
No Sequence Minimal N/P ratio*
9 O2Oc‐[Dap(HO2)]6‐O2Oc‐NH2 No binding
Figure 5S. CCK8 cytotoxicity assay performed for three compounds (5, 13, and 14). Two
different cell lines were used: A) HB‐2 and B) MDA‐MB‐231 […]

[2] = tested on: HB2 and MDA-MB-231 cells; test: Transfection with pmaxGFP plasmid and cytotoxicity of plasmid:compound complexes; format: cell-based, human; details: pmaxGFP:compound complex 4.62 × 10^−10 M
Text: Figure 10 (A) Fluorescence imaging of HB-2 and MDA-MB-231 cells transfected with pmaxGFP plasmid mixed with compounds 5, 13, 14, or the commercially available transfection reagent (control). (B) Cytotoxicity of plasmid pmaxGFP:compound complex in HB2 and MDA-MB-231 cells at the concentration of the complex equal to 4.62 × 10^−10 M.
In this experiment, second-generation compounds (compounds 5, 13, and 14) were used as transfection reagents. See transfection procedure in methodology below. After gene expression, the medium was removed and cells were lysed with 0.5 M NaOH (100 µL/well), and the fluorescence intensity was analyzed using a microplate reader at excitation and emission wavelengths of 488 and 510 nm, respectively.
In this experiment, second-generation (GO2)n compounds (compounds 5, 13, and 14) were used as transfection reagents. HB2 and MDA-MB-231 were seeded in 96-well plates at a density of 5 × 10^3/well and 7 × 10^3/well in complete medium and grown until 60–70% confluency. […] The DNA concentration was determined using UV readout at 260/280 nm. […] Results were observed by fluorescence microscopy.

N=C(N)NCCOCCOCC(=O)NC[C@H](NC(=O)COCCOCCN)C(=O)N[C@@H](CNC(=O)COCCOCCNC(=N)N)C(=O)N[C@@H](CNC(=O)COCCOCCNC(=N)N)C(=O)N[C@@H](CNC(=O)COCCOCCNC(=N)N)C(=O)N[C@@H](CNC(=O)COCCOCCNC(=N)N)C(=O)N[C@@H](CNC(=O)COCCOCCNC(=N)N)C(=O)N[C@@H](CNC(=O)COCCOCCNC(=N)N)C(=O)N[C@@H](CNC(=O)COCCOCCNC(=N)N)C(=O)NCCOCCOCC(N)=O [compound 14, O2Oc-[Dap(GO2)]8-O2Oc-NH2]
Cytotoxicity (CCK-8), in words [1]: low cytotoxicity | Post-transfection cytotoxicity [2]: 30%
